Data on 64 compounds can be found in patent publication US6727237B2, “Inhibitors of bacterial NAD synthetase” (priority 1998, dated 2004).

For the test, the target named is T1, bacterial NAD synthetase enzyme (Bacillus subtilis, UniProt P08164).
T1 sequence (P08164 2-272 limits assumed): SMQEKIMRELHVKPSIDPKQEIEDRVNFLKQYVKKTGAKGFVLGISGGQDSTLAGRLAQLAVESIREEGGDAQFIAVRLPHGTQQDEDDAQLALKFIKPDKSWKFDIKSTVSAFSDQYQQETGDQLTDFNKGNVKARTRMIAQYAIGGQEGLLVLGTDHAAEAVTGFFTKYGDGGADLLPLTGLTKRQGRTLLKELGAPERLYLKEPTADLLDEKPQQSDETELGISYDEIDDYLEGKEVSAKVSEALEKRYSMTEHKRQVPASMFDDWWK
Description: biochemical. It is filed as biochemical.

Where [1] appears, read: compound at 0.2 mM (Table 312A).
Setting [2] is: compound at 0.2 mM (Table 312B).

SMILES strings stand for the structures. Where two headings read alike, the source gives them in different places.

For `C[n+]1cccc(CC(=O)OCCCCCCCCc2cc3cc(C(=O)c4ccccc4)ccc3[nH]2)c1` [Compound 942], the IC50 (usually the concentration needed to halve the response being measured) turned out to be 75 µM and testing at 100 µM gave an inhibition of 97.8%.

Regarding `CC(=O)c1ccc2[nH]c(CCCCOC(=O)c3cc[n+](C)cc3)cc2c1` [Compound 907], the % Inhibition – broadly, the relative decrease from the control value, in per cent – (compound at 0.25 mM) was determined as 20.6%.

Regarding `C[n+]1cccc(C(=O)OCCCCCCCCn2ccc3ccccc32)c1` [Compound 969], the “% Inhibition” value under setting [1] is 83.16%.

`c1ccc(C(c2ccccc2)(c2ccccc2)c2ccc3[nH]c(CCCCCCC[n+]4cccc5ccccc54)cc3c2)cc1` [Compound 448]: the “% Inhibition” value under setting [1] was 2.92%.

In the case of `c1ccc(Oc2ccc3[nH]c(CCCCCCC[n+]4ccccc4)cc3c2)cc1` [Compound 352], under “compound at 0.1 mM (Table 314)”, the “% Inhibition” value was found to be 32.69%.

With `CC(=O)c1ccc2[nH]c(CCCCCCCCOC(=O)c3ccc([N+](C)(C)C)cc3)cc2c1` [Compound 894], the IC50 stood at 50 µM and the inhibition – broadly, how much of the control response was suppressed – at 100 µM came to 91.1%.

The compound `COC(=O)c1cc2ccccc2n1CCCCCCCCCOC(=O)c1ccc[n+](C)c1` [Compound 974] showed an IC50 of 35 µM and an inhibition at 100 µM of 88.2%.

In the case of `O=[N+]([O-])c1cc([N+](=O)[O-])c2[nH]c(CCCCCCC[n+]3ccc4ccccc4c3)cc2c1` [Compound 526], under setting [1], the “% Inhibition” value turned out to be 42.77%.

In the case of `Fc1cc(F)c2[nH]c(CCCC[n+]3ccccc3)cc2c1` [Compound 301], the “% Inhibition” value under setting [1] is recorded as 6.12%.

As to `COc1ccccc1OCCCCCCCCOC(=O)Cc1ccc([N+](C)(C)C)cc1` [Compound 1087], the IC50 came out at 40 µM and 200 µM produced 61% inhibition.

With `C[n+]1cccc(C(=O)OCCCOc2ccccc2C=CC(=O)c2ccccc2)c1` [compound 1066], 200 µM produced 70% inhibition.

Turning to `C[n+]1cccc(C(=O)OCCCCCCCCc2cc3cc(Oc4ccccc4)ccc3[nH]2)c1` [Compound 918], the “% Inhibition” value (compound at 0.25 mM) came to 98.6%.

On to `Cc1ccc2[nH]c(CCCCCCCC[n+]3ccccc3)cc2c1` [Compound 299], for which the “% Inhibition” value under setting [1] is 49.13%.

On to `CC(=O)c1ccc2[nH]c(CCCCCCCOC(=O)c3ccc(N(C)C)cc3)cc2c1` [Compound 637], for which the “% Inhibition” value (compound at 0.1 mM (Table 314)) is on record as 4.42%.

For `FC(F)(F)c1ccc2[nH]c(CCCC[n+]3ccc4ccccc4c3)cc2c1` [Compound 577], under setting [1], the “% Inhibition” value worked out at 20.58%.

Take `C[N+](C)(C)c1cccc(C(=O)OCCCCCCCc2cc3cc(C(=O)c4ccccc4)ccc3[nH]2)c1` [Compound 881]: the “% Inhibition” value (compound at 0.1 mM (Table 314)) is reported as 90.89%.

For the compound `Cc1ccc2[nH]c(CCCCCCCC[n+]3cccc4ccccc43)cc2c1` [Compound 407], the “% Inhibition” value under setting [1] came out at 24.14%.

With `CCCCc1ccc2[nH]c(CCCCC[n+]3ccccc3)cc2c1` [Compound 314], for the setting “compound at 0.1 mM (Table 314)”, the “% Inhibition” value was 9.19%.

As for `CC(C)c1ccc2[nH]c(CCCCOC(=O)c3ccc[n+](C)c3)cc2c1` [Compound 919], the “% Inhibition” value (compound at 0.25 mM) amounted to 90.2%.

On to `Cc1ccc2[nH]c(CCCC[n+]3ccc4ccccc4c3)cc2c1` [Compound 511], for which the “% Inhibition” value under setting [1] is given as 11.02%.

For the compound `C[N+](C)(C)c1ccc(C(=O)OCCCCCCCCc2cc3cc(C(=O)c4ccccc4)ccc3[nH]2)cc1` [Compound 897], under “compound at 0.25 mM”, the “% Inhibition” value is on record as 50.9%.

For `CC(C)c1ccc2[nH]c(CCCC[n+]3ccc4ccccc4c3)cc2c1` [Compound 535], under setting [1], the “% Inhibition” value amounted to 12.61%.

For the compound `C[N+](C)(C)c1ccc(CC(=O)OCCCCCCCCOc2ccccc2C(N)=O)cc1` [Compound 1080], it took 100 µM to reach half-maximal inhibition (IC50) and the inhibition at 200 µM stood at 83%.

On to `Fc1ccc2[nH]c(CCCCCC[n+]3ccc4ccccc4c3)cc2c1` [Compound 561], for which the “% Inhibition” value under setting [1] is listed as 24.70%.

Take `CC(=O)c1ccc2[nH]c(CCCCCCCCOC(=O)c3cc[n+](C)cc3)cc2c1` [Compound 909]: the IC50 came to 25 µM and at 100 µM the inhibition was 97.2%.

Take `COC(=O)c1cc2cc(OCc3ccccc3)ccc2n1CCCCCCCOC(=O)Cc1ccc(N(C)C)cc1` [Compound 964]: the “% Inhibition” value (compound at 0.05 mM) worked out at 1.18%.

`COC(=O)c1cc2ccccc2n1CCCCCCCOC(=O)c1ccc[n+](C)c1` [Compound 972] gave an IC50 of 40 µM and an inhibition at 100 µM of 96.8%.

With `COc1ccc2[nH]c(CCCCCC[n+]3ccc4ccccc4c3)cc2c1` [Compound 591], the “% Inhibition” value under setting [1] was found to be 18.59%.

Take `Cc1ccc2[nH]c(CCCCCCC[n+]3ccc4ccccc4c3)cc2c1` [Compound 514]: the “% Inhibition” value under setting [1] was 22.32%.

`C[N+](C)(C)c1ccc(CC(=O)OCCCCCCCCOc2ccccc2C(=O)Nc2ccccc2)cc1` [Compound 1074] yielded a half-inhibitory concentration (IC50) of 30 µM and an inhibition at 200 µM of 91%.

`C[n+]1ccc(C(=O)OCCCCc2cc3cc(Oc4ccccc4)ccc3[nH]2)cc1` [Compound 901]: the “% Inhibition” value (compound at 0.25 mM) was determined as 32.8%.

Regarding `O=C(OCCCCCCCCOc1ccc(Oc2ccccc2)cc1)c1cccnc1` [Compound 1016], the “% Inhibition” value under setting [2] was 29%.

As for `CC(=O)N1CCN(c2ccc(OCCCCCCCCOC(=O)Cc3ccc(N(C)C)cc3)cc2)CC1` [Compound 1025], the “% Inhibition” value under setting [2] came out at 15%.

For the compound `O=C(OCCCCCCCc1cc2ccc(C(F)(F)F)cc2[nH]1)c1ccncc1` [Compound 697], the “% Inhibition” value under setting [1] came to 4.28%.

Consider `FC(F)(F)c1ccc2[nH]c(CCCCCCC[n+]3cccc4ccccc43)cc2c1` [Compound 472], for which, for the setting “compound at 0.1 mM (Table 314)”, the “% Inhibition” value is given as 12.76%.

For the compound `CC(C)c1ccc2[nH]c(CCCCOC(=O)c3ccc([N+](C)(C)C)cc3)cc2c1` [Compound 889], the IC50 came to 75 µM and the inhibition at 100 µM turned out to be 93.6%.

For `COc1ccc2[nH]c(CCCCCCCC[n+]3ccccc3)cc2c1` [Compound 377], the “% Inhibition” value under setting [1] is given as 30.12%.

As to `Fc1cc(F)c2[nH]c(CCCCCCC[n+]3ccc4ccccc4c3)cc2c1` [Compound 520], the “% Inhibition” value under setting [1] amounted to 55.83%.

Consider `CC(=O)C=Cc1ccc(OCCCCCCCCOC(=O)c2ccc[n+](C)c2)cc1` [compound 1061], for which the “% Inhibition” value under setting [2] was 61%.

On to `C[n+]1ccc(C(=O)OCCCCc2cc3ccc(C(F)(F)F)cc3[nH]2)cc1` [Compound 898], for which the “% Inhibition” value (compound at 0.25 mM) stood at 51.8%.

With `O=[N+]([O-])c1ccc2[nH]c(CCCCCC[n+]3cccc4ccccc43)cc2c1` [Compound 441], the “% Inhibition” value under setting [1] is 11.80%.

`c1ccc(Oc2ccc3[nH]c(CCCCCCC[n+]4cccc5ccccc54)cc3c2)cc1` [Compound 460]: under setting [1], the “% Inhibition” value worked out at 4.17%.

`O=C(OCCCCCCCCOc1ccc(C(=O)c2ccccc2)cc1)c1cccnc1` [Compound 1013]: the “% Inhibition” value under setting [2] is given as 29%.

With `COC(=O)c1cc2ccccc2n1CCCCCCOC(=O)Cc1ccc([N+](C)(C)C)cc1` [Compound 983], the midpoint of inhibition, the IC50, lay at 25 µM and testing at 50 µM gave an inhibition of 92.5%.

`C[N+](C)(C)c1ccc(CC(=O)OCCCCCCCCOc2ccc(Oc3ccccc3)cc2)cc1` [Compound 1090] registered an IC50 of 21.2 µM and an inhibition at 200 µM of 96%.

For the compound `CC(=O)Oc1cccc(OCCCCCCCCOC(=O)Cc2ccc(N(C)C)cc2)c1` [Compound 1027], under setting [2], the “% Inhibition” value was determined as 2%.

On to `O=C(O)c1ccc2[nH]c(CCCCCCC[n+]3ccc4ccccc4c3)cc2c1` [Compound 604], for which, under setting [1], the “% Inhibition” value turned out to be 34.10%.

Consider `C[N+](C)(C)c1ccc(CC(=O)OCCCCCCCCOc2ccccc2[N+](=O)[O-])cc1` [Compound 1075], for which, for the setting “NAD synthetase enzyme inhibition, read-out: IC50 of Compounds”, the IC50 turned out to be 65 µM. Besides, under setting [2], the “% Inhibition” value was 79%.

On to `O=C(OCCCCCCCc1cc2cc(Oc3ccccc3)ccc2[nH]1)c1cccnc1` [Compound 685], for which, under setting [1], the “% Inhibition” value came to 7.81%.

With `FC(F)(F)c1ccc2cc(CCCCCCCC[n+]3ccccc3)[nH]c2c1` [Compound 293], the “% Inhibition” value under setting [1] is 87.66%.

Consider `O=[N+]([O-])c1ccc2[nH]c(CCCCCCC[n+]3ccccc3)cc2c1` [Compound 334], for which, under setting [1], the “% Inhibition” value stood at 41.67%.

As to `CC(=O)c1ccc2[nH]c(CCCCCCCC[n+]3ccccc3)cc2c1` [Compound 371], the “% Inhibition” value under setting [1] stood at 43.85%.

Turning to `CCCCc1ccc2[nH]c(CCCC[n+]3cccc4ccccc43)cc2c1` [Compound 421], the “% Inhibition” value under setting [1] is 1.86%.

In the case of `Fc1ccc2[nH]c(CCCCCCCC[n+]3ccc4ccccc4c3)cc2c1` [Compound 563], the “% Inhibition” value under setting [1] was 22.68%.

`C[N+](C)(C)c1cccc(C(=O)OCCCCCCCCc2cc3cc(Oc4ccccc4)ccc3[nH]2)c1` [Compound 873]: the “% Inhibition” value (compound at 0.25 mM) is 98.0%.

`C[N+](C)(C)c1ccc(CC(=O)OCCCCCCCCOc2ccccc2N2CCOCC2)cc1` [Compound 1093]: the “% Inhibition” value under setting [2] amounted to 66%.

For the compound `CC(=O)c1ccc2[nH]c(CCCCOC(=O)Cc3ccc[n+](C)c3)cc2c1` [Compound 937], the “% Inhibition” value (compound at 0.25 mM) was found to be 88.8%.

In turn, `CC(C)c1ccc2[nH]c(CCCCCCCCOC(=O)c3cc[n+](C)cc3)cc2c1` [Compound 906] yielded an IC50 of 25 µM.

`C[N+](C)(C)c1ccc(CC(=O)OCCCCCCCCOc2ccc([N+](=O)[O-])cc2)cc1` [Compound 1073]: the “% Inhibition” value under setting [2] stood at 78%.

Consider `C[n+]1cccc(C(=O)OCCCCCCn2ccc3ccccc32)c1` [Compound 967], for which the “% Inhibition” value under setting [1] came to 19.51%.

As for `C[n+]1cccc(CC(=O)OCCCCc2cc3cc(Oc4ccccc4)ccc3[nH]2)c1` [Compound 931], for the setting “compound at 0.25 mM”, the “% Inhibition” value was 15.8%.

In the case of `CN(C)c1ccc(CC(=O)OCCCCCCCCOc2ccccc2[N+](=O)[O-])cc1` [Compound 1024], the “% Inhibition” value under setting [2] is 45%.

With `CN(C)c1ccc(C(=O)OCCCCCCCc2cc3cc(Oc4ccccc4)ccc3[nH]2)cc1` [Compound 619], the “% Inhibition” value under setting [1] is reported as 19.53%.

Regarding `CC(=O)c1ccc2[nH]c(CCCCCCC[n+]3ccc4ccccc4c3)cc2c1` [Compound 586], the “% Inhibition” value under setting [1] was determined as 2.01%.
